Like-named read-outs stand apart in the source and are kept apart here.
Key:
[1] = Microsomal stability assay, rat; format: in vitro ADME; details: for Liver Microsomes % Remaining: 1 μM, time point not given; for half-life at 1 μM: liver microsomes, pH 7.4, 0.5 mg/mL microsomes, read-out: Liver Microsomes T1/2
Description: (§1) The assay was carried out in 96-well microtiter plates. Test compounds, at a final concentration of 1 μM was incubated at 37° C. with 0.5 mg/mL liver microsomes, and +/−1 mM NADPH in 100 mM potassium phosphate, pH 7.4 buffer with 3.3 mM MgCl2. […] At each of the time points (0, 15, 30 and 60 min), incubation was stopped by adding 150 μL of the quenching solutions (100% acetonitrile, 0.1% formic acid) and subsequently the mixtures were vortexed vigorously for 20 min and centrifuged at 4,000 RPM at 4° C. The supernatants (80 μL) were transferred to a clean 96-well plate and analyzed by LC/MS/MS. Verapamil at 1 μM with a final 0.1% DMSO was included as a positive control to verify assay performance.

[2] = Microsomal stability assay, human; format: in vitro ADME; details: for Liver Microsomes % Remaining: 1 μM, time point not given; for half-life at 1 μM: liver microsomes, pH 7.4, 0.5 mg/mL microsomes, read-out: Liver Microsomes T1/2
Description: as §1

[3] = Hepatocyte stability assay, human; format: in vitro ADME; details: for Hepatocytes % Remaining: 1 μM, time point not given; for half-life at 1 μM: cryopreserved hepatocytes, 0.5 million cells/mL, read-out: Hepatocytes T1/2
Description: (§2) Cryopreserved hepatocytes were taken from the liquid nitrogen tank and thawed quickly in a 37° C. water bath. As soon as the cells pulled away from the vial wall, they were decanted into 48 mL of warm thawing (HT) medium. Cells were centrifuged for 5 minutes at 420 RPM (50 g). After removing the supernatant, the pellets were re-suspended in 4 mL of warm Dulbecco's Modified Eagle Medium (DMEM). Cell density was counted by a hemocytometer.
(§3) The assay was carried out in 96-well microtiter plates. The study compound was incubated at 1 μM with 0.5 million cells/mL hepatocytes in DMEM for 0, 60, 120, and 180 minutes at 37° C. The volume of the incubation mixture was 37 μL with a final DMSO content of 0.1%. At each time point, the incubation was stopped by the addition of 150 μL quenching solution (100% acetonitrile, 0.1% formic acid containing the internal standard bucetin at 15 nM). Subsequently, the mixtures were vortexed for 20 minutes and centrifuged at 4,000 RPM at 10° C. An aliquot of 80 μL of the supernatant was transferred to a clean 96-well plate and analyzed by LC/MS/MS. Midazolam at 1 μM with a final DMSO content of 0.1% was included as a positive control to verify the assay performance.

[4] = Hepatocyte stability assay, rat; format: in vitro ADME; details: for Hepatocytes % Remaining: 1 μM, time point not given; for half-life at 1 μM: cryopreserved hepatocytes, 0.5 million cells/mL, read-out: Hepatocytes T1/2
Description: as §2, §3

[5] = molecular target: human thyroid receptor alpha ligand-binding domain (THR-α) (Homo sapiens, UniProt P10827); assay: TR-FRET thyroid receptor coactivator assay (THR biochemical assay), alpha
Description: (§6) The TR-FRET thyroid receptor beta coactivator assay was used with slight, optimized modifications of the manufacturer's protocol (Invitrogen). The assay uses a terbium-labeled anti-GST antibody, a glutathione-S-transferase (GST) tagged human thyroid receptor, beta or alpha, ligand-binding domain (LBD), and a fluorescein labeled SRC2-2 coactivator peptide. […] The energy transfer was detected as an increase in the fluorescence emission of the fluorescein acceptor, and a decrease in the fluorescence emission of the terbium donor. The assay was performed in a 384-well black plate in a final volume of 20 μL. Serial dilution of various test agonists was performed in DMSO (1% final DMSO concentration) and added to the test plate. Thyroid receptor beta LBD was added to the plate at a final concentration of 1 nM, followed by the mixture of the fluorescein labeled SRC2-2 coactivator peptide, and the terbium-labeled anti-GST antibody at final concentrations of 200 nM and 2 nM respectively. The assay was incubated for 1 hr at rt protected from light.

[6] = Hepatocyte stability assay, mouse; format: in vitro ADME; details: for Hepatocytes % Remaining: 1 μM, time point not given; for half-life at 1 μM: cryopreserved hepatocytes, 0.5 million cells/mL, read-out: Hepatocytes T1/2
Description: as §2, §3

[7] = Pharmacokinetics in rat (i.v.); format: in vivo, Male Sprague-Dawley rats; details: for concentration at 12 h / clearance / half-life: male, Sprague-Dawley, iv 1 mg/kg; for clearance / half-life: 60% PEG400 in water
Description: Male Sprague-Dawley rats were administered the study compound as an i.v. bolus dose of 1 mg/kg in a 0.500 mg/mL solution in 60% PEG400 in water.

THR alpha = molecular target: T1, THR alpha (Homo sapiens, UniProt P10827); assay: HEK293T THRalpha/RXR luciferase reporter assay; format: cell-based; details: HEK293T TRE-luciferase reporter, 18-24 h; read-out: EC50 THR-α (HEK 293 Activity)
T1 construct: expressed in transfected cells; host or cells: HEK293T (ATCC CRL-3216)
T1 sequence (P10827 1-410 isoform P10827-2): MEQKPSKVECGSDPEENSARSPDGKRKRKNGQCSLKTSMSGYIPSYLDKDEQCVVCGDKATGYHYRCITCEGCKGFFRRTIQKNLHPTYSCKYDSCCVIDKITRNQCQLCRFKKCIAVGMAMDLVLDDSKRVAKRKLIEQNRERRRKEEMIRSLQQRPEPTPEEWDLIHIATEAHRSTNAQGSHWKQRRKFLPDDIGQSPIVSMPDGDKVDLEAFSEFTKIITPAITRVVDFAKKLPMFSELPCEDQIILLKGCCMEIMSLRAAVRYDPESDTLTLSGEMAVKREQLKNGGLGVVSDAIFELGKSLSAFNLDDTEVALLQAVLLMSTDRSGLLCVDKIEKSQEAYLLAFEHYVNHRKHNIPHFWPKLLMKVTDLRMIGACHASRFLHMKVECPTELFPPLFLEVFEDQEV
T1 sequence (P19793 1-462 partner): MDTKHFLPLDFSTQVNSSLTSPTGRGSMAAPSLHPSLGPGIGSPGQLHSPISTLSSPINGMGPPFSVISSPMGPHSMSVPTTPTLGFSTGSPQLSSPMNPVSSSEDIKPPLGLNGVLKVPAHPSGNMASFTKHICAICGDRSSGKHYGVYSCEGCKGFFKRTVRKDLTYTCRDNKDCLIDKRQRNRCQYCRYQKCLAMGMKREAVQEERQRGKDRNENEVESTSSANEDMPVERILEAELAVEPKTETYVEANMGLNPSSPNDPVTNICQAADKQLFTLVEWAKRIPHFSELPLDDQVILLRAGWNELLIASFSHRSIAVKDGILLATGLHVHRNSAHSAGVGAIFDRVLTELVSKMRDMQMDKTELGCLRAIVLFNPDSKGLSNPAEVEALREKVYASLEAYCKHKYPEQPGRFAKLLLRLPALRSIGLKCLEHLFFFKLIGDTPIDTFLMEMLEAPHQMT
Description: (§4) The purpose of this assay is to evaluate the effect of compounds on the thyroid hormone nuclear receptor pathway in HEK293T cells. To this end, HEK293T cells are transiently transfected with a luciferase reporter under the control of the thyroid response element (TRE), an RXR expression plasmid and either a THR alpha or THR beta expression plasmid. Transfected cells are stimulated with test compounds for 18-24 hours before activation of the thyroid hormone pathway is measured via a luciferase read-out.
(§5) Procedure. 24 hours prior to transfection, approximately […] HEK293T (ATCC, catalog #CRL-3216) were plated in one well of a 6-well-plate using DMEM (Hyclone, catalog #SH30022) supplemented with 10% FBS (Gibco, catalog #16000-044) and incubated overnight. Transfection complexes were prepared by mixing 12 μL of Lipofectamine 2000 (Invitrogen catalog #11668019) with 4 μg of a plasmid mixture at a ratio of 1:1:4 (TRalpha or TRbeta:RXR:TRE-Luc) in 200 μL OptiMem (Invitrogen catalog #11058-021) and added to the cells. […] Approximately 18-24 h after compound addition, 384 well plates were allowed to adjust to rt, 30 μL One-Glo (Promega catalog #E6120) is added to each well and luminescence was measured on a Perkin Elmer Enspire plate reader. Percent agonism was calculated using the following equation: 100×(sample−negative control)/(positive control−negative control).

[8] = molecular target: T2, human thyroid receptor beta ligand-binding domain (THR-β) (Homo sapiens, UniProt P10828); assay: TR-FRET thyroid receptor beta coactivator assay (THR biochemical assay)
T2 sequence (P10828 217-461 limits assumed): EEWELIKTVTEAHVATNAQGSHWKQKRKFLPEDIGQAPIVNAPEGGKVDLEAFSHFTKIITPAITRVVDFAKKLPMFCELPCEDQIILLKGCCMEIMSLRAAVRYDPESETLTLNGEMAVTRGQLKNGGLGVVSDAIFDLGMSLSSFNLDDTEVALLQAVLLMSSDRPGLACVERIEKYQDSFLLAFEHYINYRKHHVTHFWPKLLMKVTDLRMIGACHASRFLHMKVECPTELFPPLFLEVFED
Description: as §6

[9] = Microsomal stability assay, mouse; format: in vitro ADME; details: for Liver Microsomes % Remaining: 1 μM, time point not given; for half-life at 1 μM: liver microsomes, pH 7.4, 0.5 mg/mL microsomes, read-out: Liver Microsomes T1/2
Description: as §1

[10] = test system: WT C57BL/6 mice fed a high fat diet; assay: Cholesterol reduction in a murine efficacy model; format: in vivo, mouse; details: 0.025 mg/kg BID p.o., 7 days, high fat diet C57BL/6 mice
Description: Model description. WT C57BL/6 mice were fed a high fat diet (D12109C) for 2 weeks. Prior to the administration of compound 1a, blood was drawn to measure the baseline lipid levels. Compound 1a was dosed daily (p.o.) for 7 days. Blood was drawn to measure lipid levels.

THR beta = molecular target: T3, THR beta (Homo sapiens, UniProt P10828); assay: HEK293T THRbeta/RXR luciferase reporter assay; format: cell-based
T3 construct: expressed in transfected cells; host or cells: HEK293T (ATCC CRL-3216)
T3 sequence (P10828 1-461): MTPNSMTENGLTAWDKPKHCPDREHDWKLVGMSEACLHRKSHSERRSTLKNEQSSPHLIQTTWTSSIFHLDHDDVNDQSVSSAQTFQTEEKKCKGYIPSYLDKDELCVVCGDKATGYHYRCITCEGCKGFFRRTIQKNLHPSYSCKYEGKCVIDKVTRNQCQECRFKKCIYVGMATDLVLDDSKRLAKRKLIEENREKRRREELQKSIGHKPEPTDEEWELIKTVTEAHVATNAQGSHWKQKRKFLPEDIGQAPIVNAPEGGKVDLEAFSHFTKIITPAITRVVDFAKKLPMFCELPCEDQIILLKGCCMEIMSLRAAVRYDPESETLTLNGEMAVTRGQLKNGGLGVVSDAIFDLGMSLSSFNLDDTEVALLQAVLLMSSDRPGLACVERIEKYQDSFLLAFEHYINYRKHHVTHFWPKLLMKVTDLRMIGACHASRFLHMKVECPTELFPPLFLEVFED
T3 sequence (P19793 1-462 partner): T1 sequence (P19793 1-462 partner)
Description: as §4, §5

[11] = Pharmacokinetic profile in mouse; format: in vivo

Liver Microsomes % Remaining [1]	half-life at 1 μM [1] [h]	Liver Microsomes % Remaining [2]	half-life at 1 μM [2] [h]	Hepatocytes % Remaining [3]	half-life at 1 μM [3] [h]	Hepatocytes % Remaining [4]	half-life at 1 μM [4] [h]	Hepatocytes % Remaining [6]	half-life at 1 μM [6] [h]	clearance ([7]; plasma) [mL/min/kg]	half-life ([7]; plasma) [h]	Liver Microsomes % Remaining [9]	half-life at 1 μM [9] [h]	SMILES	other results
(98) %	> 1	(107) %	> 1	(100) %	> 6	(107) %	> 6	(88) %	> 6	2.14	5.25	(100) %	> 1	CC(c1cc(Oc2c(Cl)cc(-n3nc(N)c(=O)[nH]c3=O)cc2Cl)n[nH]c1=O)C1CC1 (single isomer, unassigned) [Compound 1a]	EC50 [5]: 252 nM; Liver/Heart Concentration ([7]; at 12 h): 62 at 12 h; in vivo half-life compared to compound 2 ([7]; comparison in words): unexpectedly longer; concentration at 12 h ([7]; liver, read-out: Liver conc. 12 h): 14400 ng/g; concentration at 12 h ([7]; plasma, read-out: Plasma conc. 12 h): 336 ng/mL; EC50 (THR alpha): 201 nM; EC50 [8]: 26 nM; THR-β Selectivity (Biochemical Activity) ([8]; THR-β over THR-α, TR-FRET assay): 9.5; in vitro THR-β selectivity compared to its enantiomer, compound 1b ([8]; biochemical assay, comparison in words): higher; reduction in cholesterol [10]: 24.5%; EC50 (THR beta; HEK293T TRE-luciferase reporter, 18-24 h, read-out: EC50 THR-β (HEK 293 Activity)): 38 nM; THR-β Selectivity (HEK 293 Activity) (THR beta; THR-β over THR-α, HEK293T reporter): 5; Liver/Heart Concentration ([11]; at 24 h): 27.6 at 24 h; clearance ([11]; in vivo): 6.3 mL/min/kg; half-life ([11]; in vivo): 2.87 h
(85) %	> 1	(84) %	> 1	(31) %	1.72	(24) %	1.43	(18) %	1.18	9.14	1.31	(94) %	> 1	C#Cc1nn(-c2cc(Cl)c(Oc3cc(C(C)C)c(=O)[nH]n3)c(Cl)c2)c(=O)[nH]c1=O [Compound 2, reference compound]	
